Series [1] deals with R3230 cells. In words: pHi measurements with BCECF-AM. The class given is cell-based, rat. To be noted: fluorescent dye BCECF-AM. As for the experimental part: pHi measurements: Cells were grown on glass coverslides and incubated with BCECF-AM (Invitrogen) at 5 μM for 20 min, and imaged on an inverted fluorescence microscope, with excitation at 440 and 490 nm, emission 535 nm. Ratiometric pH calibration was done in mixture ratios of buffers containing 110 mM K2HPO4 or 135 mM KH2PO4, and 20 mM NaCl, respectively. Nigericin was added at 10 μM (Franck et al, 1996) and pH expressed as ratios of grayscale values from stacks of calibration images taken from the nigericin-treated cells, imaged at 440 and 490 nm (Franck et al, 1996).

Series [2] has as its system R3230 cells. In words: Measurement of redox changes (NAD+/NADH optical density 260/340 nm). The series is classed as cell-based, rat. The settings on record: within 2 minutes after isovolumic addition. As for the experimental part: Measurement of redox changes: Cells were trypsinized, washed, and brought to 5×10^6/mL in PBS. 1 mL of cell suspension was scanned for optical density in a cuvette at 260 nm (NAD^+) and 340 nm (NADH+H^+). Various concentrations of Na-lactate in PBS were added at 20 μL/mL.

Series [3] has as its system R3230 cells. Briefly: Measurement of metabolic rates (glucose consumption) in cultured R3230 cells. The series is classed as cell-based, rat. As for the experimental part: (§1) Tissue culture and measurement of metabolic rates: The R3230 rat mammary carcinoma was originally derived from a spontaneous mammary carcinoma of the Fischer 344 rat (Hilf et al, 1965; Lindberg et al, 1996). Cells were exposed to 6% or 0.5% oxygen (Vaupel et al, 1991) at 37° C., and […] in glucose- and serum-free DMEM, while dishes were placed on a slow-moving rocker. Cells were counted and media samples were collected at the beginning and end of the experiment, and analyzed for glucose and lactate content using a CMA microdialysis analyzer (CMA, Sweden).

In series [4] the test system is R3230 cells. Briefly: Survival of R3230 cells by counts of attached cells. The class given is cell-based, rat. As for the experimental part: (F) Effect of Na-lactate concentration on cellular NAD/NADH ratio (expressed as light absorbance ratio, 260/340 nm).
as §1

In a further series the test system is R3230 Ac. Briefly: Uptake kinetics of 14C-lactate or 14C-glucose in vivo (3-compartment model). Also noted: species or system rat. To be noted: 14C-labeled metabolite infused i.v., fitted rate constant. As for the experimental part: Uptake kinetics of ^14C-lactate in vivo: Kinetics of ^14C-lactate or ^14C-glucose uptake were studied using a novel implantable fiber optic radiation detection probe provided by Sicel Technologies Inc., Durham, N.C. Time uptake curves from tumor, subcutaneous, and blood compartments were analyzed using a 3-compartment model from which were derived parameters related to the transfer coefficients in and out of the tumor and blood clearance (see Supplemental methods for detail). The apparatus detected beta radiation from ^14C, which is proportional to ^14 C-lactate or ^14C-glucose concentration. Probes were inserted into tumors of anesthetized rats (Isoflurane as above) and subcutaneous tissue as a control. Each probe was calibrated using ^14C-glucose solutions of known concentration (μCi/mL) immediately before the experiment. After a stabilization period of 50 min, 50 μCi of ^14C-lactate or ^14C-glucose was infused intravenously. Data were recorded in two-minute intervals over 3 h. Baseline (background, dark current values) were subtracted from each time point.
Normalization to the calibration solution was done to control for variations in probe performance and length of probe used in different tumors. The relationship between photons detected and concentration (μCi/mL) was linear, based on experiments done by the company. Data were graphed as the change in μCi/mL over time, and normalized to dose/body weight (μCi/g) to obtain a standardized uptake value (SUV).
In separate animals, blood samples (300 μL-500 μL) were taken at 0, 4, 7, 10, 15, 25, 30, 60, 100, and 160 minutes from the arterial cannula following ^14C-radioisotope infusion. Samples were centrifuged, and plasma collected and weighed. Plasma activities were measured in a liquid scintillation counter (Packard Tri-Carb 1500, Perkin Elmer Life and Analytical Sciences Inc., Boston Mass.) and isotope concentrations (μCi/g) were calculated. Blood activity data were normalized to dose/body weight. Time uptake curves from tumor, subcutaneous, and blood compartments were analyzed using a 3-compartmental model.
The equations defining tracer kinetics were the following:
dCp/dt=−(k1+k4+k0)Cp+k2Ct+k5Cs (1)
Cp, Ci, and Cs were the tracer concentration in central blood compartment, tumor cells, and subcutaneous tissue, respectively. Ct was the measured compound concentration in tumor. Vb was the vascular volume fraction. Due to the nature of the measurement, the tumor probe collected photon counts from both tumor cells and nearby vasculature. The last equation described vascular contribution to the overall photon counts in the tumor tissue. Ki was the transfer constant between each compartment. The averaged isotope concentration in plasma was used to create an empirical blood curve to be used in the model. […]

The subject of series [5] is R3230 cells. Briefly: Clonogenic assay. The class given is cell-based, rat. From the text:
Cells were washed and returned to normal growth medium. 14 days later, colonies were stained with crystal violet and counted.

The target in another series is T1, MCT-1 (Rattus norvegicus, UniProt P53987).
T1 construct: endogenous in cells; host or cells: R3230 rat mammary carcinoma cells
T1 sequence (P53987 1-494): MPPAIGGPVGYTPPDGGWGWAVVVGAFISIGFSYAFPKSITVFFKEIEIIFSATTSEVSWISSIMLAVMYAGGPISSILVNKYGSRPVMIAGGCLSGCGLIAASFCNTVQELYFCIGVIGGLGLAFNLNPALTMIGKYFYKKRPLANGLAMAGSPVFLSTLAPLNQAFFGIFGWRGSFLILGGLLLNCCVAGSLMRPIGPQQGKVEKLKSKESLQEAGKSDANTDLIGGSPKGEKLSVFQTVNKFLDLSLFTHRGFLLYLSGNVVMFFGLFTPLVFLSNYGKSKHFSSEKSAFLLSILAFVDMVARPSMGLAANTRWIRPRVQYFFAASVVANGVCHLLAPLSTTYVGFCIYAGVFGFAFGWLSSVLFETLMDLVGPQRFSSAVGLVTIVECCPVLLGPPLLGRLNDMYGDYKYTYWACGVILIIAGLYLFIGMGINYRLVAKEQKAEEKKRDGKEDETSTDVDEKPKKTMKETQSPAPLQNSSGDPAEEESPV
Briefly: 13C NMR of lactate uptake and catabolism to alanine and glutamate in R3230 cells. The series is classed as cell-based. The settings on record: 5 mM CHC. How it is done:
^1H-NMR and ^13C-NMR: R3230 cells were grown to 60% confluency. Cells were washed and exposed to DMEM with varying concentrations of ^13C-methyl labeled L-lactate solution (Sigma, St. Louis, Mo.), without serum and glucose. Cells were washed, mounted with 60% perchloric acid, scraped down, and centrifuged at 8,000 G for 5 min; PBS (20% vol/vol) and 98% deuterated water (10% vol/vol) (Sigma, St. Louis, Mo.) were added to supernatants to a total of 600 uL for NMR. For medium sample analysis, 10% vol/vol deuterated water was added to the medium before NMR analysis. NMR spectra were recorded on a Varian 500 MHz VNMRS spectrometer equipped with a Dell Optiplex 755 data system and a 5 mm Varian inverse probe. ^1H NMR spectra were obtained with a spectral width (SW) of 5.5 kHz, a 67 pulse flip angle (6 us), a 6.4 s acquisition time (AT), a 2 sec water presaturation pulse and relaxation delay (RD), and digitized using 64000 points to obtain a digital resolution of 0.172 Hz per point. ^1H-decoupled ^13C spectra were recorded at 125 MHz with a 32051.3 Hz SW, a 60 pulse flip angle (6.5 us), a 2.0 s AT, a 0.7 s RD and digitized into 130,000 points to yield a digital resolution of 0.493 Hz per point.

The structures appear in SMILES notation. Entries after “also recorded” stand apart in the source; their conditions may differ.

On to `CC(O)C(=O)O` (stereo not drawn) [Lactate, lactate], for which, in the series on R3230 cells [1], the “effect on intracellular pH” value was “concentration-dependent reduction of intracellular pH”. For the same compound, the “effect on NAD+/NADH2+ (reductive stress)” value in the series on R3230 cells [2] is reported as “concentration-dependent drop”. Besides, the “effect of escalated extracellular lactate on glucose consumption” value in the series with R3230 cells [3] (glucopenic conditions) was “inhibited glucose consumption in a concentration-dependent manner”. The “inhibition of glucose consumption” value with R3230 cells [3] (glucose 0.2 mM, 18 hr incubation, 6% O2) worked out at 41%. Further, the “effect on survival under glucose starvation” value in the series on R3230 cells [4] (lactate 2.5 mM) was “rendered a survival advantage”. The “Na-lactate concentration leading to decreased survival (counts of attached cells)” value in the series with R3230 cells [4] (under glucose deprivation) is listed as more than 2.5 mM. Further, in the series on R3230 Ac (R3230 Ac tumour-bearing rats), the “K1 Transfer rate into tumor” value is on record as 0.2381 and the “K2 Transfer rate out of tumor” value is reported as 0.06182. Moreover, in the series with R3230 Ac (subcutaneous tissue), the “K4 Transfer rate into SQ” value is recorded as 0.00144 and the “K5 Transfer rate out of SQ” value stood at 0.07439.
Take `N#CC(=Cc1ccc(O)cc1)C(=O)O` [CHC, α-cyano-4-hydroxycinnamate]: in the series with R3230 cells [5] (any ambient lactate), the “effect on clonogenic survival, higher concentrations of CHC” value was “cytotoxic, independent of ambient lactate”. Moreover, the “effect on clonogenic survival, low concentrations of CHC” value with R3230 cells [5] (high ambient lactate (>5mM) versus low lactate (0-5 mM)) is given as “selectively reduced R3230 clonogenic survival at high ambient lactate”. Besides, the “effect on lactate catabolism to alanine and glutamate” value on MCT-1 (40 mM 13C-lactate, 24 h, glucose/serum free) was “effectively inhibited catabolism of lactate to glutamate and alanine; also recorded: inhibited breakdown of lactate and conversion into alanine and glutamate”. Besides, the “effect on lactate uptake, low lactate” value on MCT-1 (lactate 5 mM) is given as “effectively inhibited lactate uptake”. Further, the “effect on lactate uptake, high lactate” value on MCT-1 (lactate 40 mM) is “lactate uptake persisted”.

The values above are taken from patent US20130023587A1, “COMPOSITIONS AND METHODS FOR THE TREATMENT OF CANCER” (DUKE UNIVERSITY, priority 2010, published 2013).
